In the assay the target is T1, dCTP pyrophosphatase 1 (Homo sapiens, UniProt Q9H773).
T1 sequence (Q9H773 whole entry): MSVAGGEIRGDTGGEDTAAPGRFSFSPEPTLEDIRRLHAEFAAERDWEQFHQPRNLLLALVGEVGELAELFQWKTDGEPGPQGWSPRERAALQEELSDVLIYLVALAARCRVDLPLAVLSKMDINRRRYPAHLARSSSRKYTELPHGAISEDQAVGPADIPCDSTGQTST
As to the kind of experiment: Enzyme Assay. The settings on record: pH 7.4; 25 °C. The procedure: Kinetic enzyme assays were performed in a 384-well, white plates (Nunc) on a Wallac Victor 2 plate reader using human DCTPP1 and triptolide and analogues.

Molecules are shown by their SMILES. pKi: −log10 of the molar value.

On to `CC(C)[C@]1(O)[C@H](O)[C@@H]2O[C@]23[C@]2(O[C@H]2CC2C4=C(CC[C@@]23C)C(=O)OC4)[C@@H]1O` (some centres not stated) [Triptriolide, 5], for which the pKi is 4.07.
`CC(C)[C@]12O[C@H]1[C@@H]1O[C@@]13[C@@]1(C)CCC4=C(COC4=O)[C@]1(O)C[C@@H]1O[C@@]13C2=O` [5-Hydroxytriptonide, 6] showed a negative-log Ki (pKi) of 3.45.

What is called pKi is the Ki on a negative log10 scale, so that one unit is a factor of ten. Read a high pKi as a low Ki.

Source of the values: BindingDB's records for doi:10.1002/cbic.201100007 (Yale University, 2011).
